This is an account of results in patent US9643988B2, “Compounds having low ionization energy” (THE ARIZONA BOARD OF REGENTS ON BEHALF OF THE UNIVERSITY OF …, priority 2013, dated 2017).

Values joined by “and” are separate entries in the source; they are usually repeats but may differ in a detail not shown here. Equal values may be shown once. Read-outs that look alike come from different tables or passages of the source.

Data set [1] is described as follows: Differential pulse voltammetry in THF vs Ag/AgCl. In kind it is physicochemical. The note with it: DPV peak. The method, then: ^1H NMR spectra were recorded on a Mercury 300 spectrometer with chemical shifts referenced to the protonated solvent residue. Mass spectrometry data (electrospray ionization, ESI) were recorded at the Laboratory for Biological Mass Spectrometry at Texas A&M University using an MDS Series Qstar Pulsar with a spray voltage of 5 kV. Elemental analyses were performed by Robertson Microlit Laboratories, Inc., Madison, N.J. on crystalline samples that were previously washed with cold hexanes and dried overnight under vacuum. Infrared spectra were recorded in a Perkin-Elmer 16PC FT IR spectrophotometer using KBr pellets. Electronic spectra were recorded on a Shimadzu UV-2501 PC spectrophotometer. The differential pulse voltammograms were collected using a CH Instruments model-CHI620A electrochemical analyzer in a 0.1 M Bu^n4NPF6 solution in THF, using Pt working and auxiliary electrodes, a Ag/AgCl reference electrode, and a scan rate of 100 mV/s. All potential values are referenced to the Ag/AgCl electrode, and under the present experimental conditions, the E1/2 for the Fc^+/Fc couple consistently occurred at +440 mV.

For data set [2] the following is noted: comparison value; cited from earlier work.
Data set [3] in a line: Literature potentials and solvation energy of comparison substances. In kind it is physicochemical. The conditions noted are these: difference versus compounds 3 and 4.
Data set [4] can be described thus: Ionization energies of comparison substances. It counts as physicochemical. The conditions noted are these: difference versus compounds 3 and 4.
For data set [5] the following is noted: cited from earlier work.
The nature of data set [6]: Solubility in dry organic solvents. It counts as physicochemical.
The conditions of data set [7]: reported value for comparison, cited from earlier work; for reported E1/2 / observed peak position for W2^5+/4+: THF.
The nature of data set [8]: Gas-phase photoelectron spectroscopy (PES) of the δ bond ionization. The conditions noted are these: for onset ionization energy (IEonset, PESonset): first ionization band; for vertical ionization energy (VIE, PESvertical): position of main Gaussian peak. In kind it is physicochemical. The method, then: The gas-phase PES of W2(TMhpp)4 and W2(TEhpp)4 were recorded using an instrument that features a 36-cm radius, 8-cm gap hemispherical analyzer, and custom-designed excitation source, sample cells, detection and control electronics, and methods that have been described, for example, in Rev. Sci. Instrum. 1986, 57, 2366 and J. Am. Chem. Soc. 1998, 120, 3382-3386. The temperature was monitored using a “K”-type thermocouple passed through a vacuum feed through and attached directly to the sample cell. Samples of W2(TMhpp)4 and W2(TEhpp)4 were loaded into stainless steel cells and placed in the instrument using rigorous air-sensitive techniques. The data collection focused on determining the δ bond ionization energy. To avoid decomposition in the sample chamber of the cell, ampoules containing the samples were broken off and placed directly in the ionization chamber.
Complete spectra were collected every few minutes.
The ^2P3/2 peak of argon at 15.76 eV ionization energy is typically used for internal energy calibration, but over the course of the experiment sensitivity to the ^2P3/2 peak of Ar was lost. This often happens with molecules that are strong reductants, presumably because of the very large change in work function of the spectrometer when the sample condenses on the spectrometer surfaces. At this point the lamp was adjusted to emit He II photons in addition to He I photons. This allowed observation of the He self-ionization (by He II photons) at an apparent binding energy of 4.99 eV in the He I spectrum. This very sharp line is a convenient internal energy calibrant and is preferable for the calibration of low-energy ionizations. The resolution, as measured by the Ar peak before it was no longer visible, was approximately 0.030 eV. The resolution for the W2(TMhpp)4 and W2(TEhpp)4 experiments, as measured by the He self-ionization, was 71 meV and 88 meV, respectively. Over the course of two separate data collections of W2(TMhpp)4, approximately 800 counts of the full He I spectrum (Graphic S1) and an additional 400 counts of a close-up on the δ bond ionization were collected. For W2(TEhpp)4 approximately 400 counts of the δ bond ionization were collected.
The ionization bands are represented analytically with asymmetric Gaussian peaks. As is typical for the first ionization bands of M2(hpp)4 molecules, a weak shoulder is observed on the high ionization energy side of the peak that necessitates the use of a second asymmetric Gaussian component to reasonably account for the total contour of the ionization intensity. The additional ionization intensity on the high ionization energy side of the first band is ascribed to the different puckered conformations that the hpp ligands can adopt in the molecules. […]

The conditions of data set [9]: vacuum.
The mark [10] stands for this setting: common dry solvents such as THF, toluene, and benzene.
Where [11] appears, read: non-halogenated, non-protonated solvents such as THF, toluene, benzene and even hexanes.

Turning to `CCC1(CC)CN2CC(CC)(CC)C[N+]3=C2[N](C1)[W-2]124([Cl])[N]5CC(CC)(CC)CN6CC(CC)(CC)C[N+](=C65)[W-2]31([Cl])([N+]1=C3N(CC(CC)(CC)C[N]32)CC(CC)(CC)C1)[N+]1=C2N(CC(CC)(CC)C[N]24)CC(CC)(CC)C1` [compound 2, W2(TEhpp)4Cl2], in data set [1], the “E1/2(1), W2^6+/5+ process” value is given as −0.99 V and the “E1/2(2), W2^5+/4+ process” value is reported as −1.90 V.
Turning to decamethylcobaltocene [(Cp*)2Co], in [2], the “ionization energy (IE)” value is listed as 4.705 eV. The “oxidation potential less negative than that of compounds 3 and 4” value in [3] is “approximately 0.4 V”. Besides, the “ionization energy greater than that of compounds 3 and 4” value in data set [4] is “more than 1 eV”. For the same compound, in data set [5] (comparison value), the oxidation potential is −1.47 V.
As to `[K]` [K, potassium], the “E1/2, literature” value in data set [5] (in THF) is −2.66 V.
Consider `C1CN2CCC[N+]3=C2[N](C1)[W-2]124[N]5CCCN6CCC[N+](=C65)[W-2]31([N+]1=C3N(CCC[N]32)CCC1)[N+]1=C2N(CCC[N]24)CCC1` [W2(hpp)4, reference compound], for which, in [6] (non-reactive organic solvents), the solubility result is “poor solubility”. In data set [7], the “reported E1/2 / observed peak position for W2^5+/4+” value is −1.81 V and the “reported E1/2 for W2^6+/5+” value is given as −0.97 V. Also, in [8], the “onset ionization energy (IEonset, PESonset)” value is 3.51 eV and 3.51±0.05 eV; the “vertical ionization energy (VIE, PESvertical)” value worked out at 3.76 eV.
As for `[Cs]` [cesium], the “ionization energy (IE)” value in data set [2] is reported as 3.89 eV.
Regarding W2(TMhpp)4 [compound 3], in data set [6], the “solubility properties compared to decamethylcobaltocene” value is reported as “compare very favorably”. The results for the solubility result in data set [6] (setting [10]), in data set [6] (hexanes) and in [6] (setting [11]) were “very soluble”, “Some solubility” and “very soluble”, respectively. Also, the “decomposition during PES measurement” value in data set [9] (216 to 271° C., 2½ h) is given as “In neither case was there any evidence of decomposition”; in data set [9] (216 to 271° C., 2½ h, listed as W2(TMhpp)4), “without evidence of decomposition”.
In the case of `CC1(C)CN2CC(C)(C)C[N+]3=C2[N](C1)[W-2]124([Cl])[N]5CC(C)(C)CN6CC(C)(C)C[N+](=C65)[W-2]31([Cl])([N+]1=C3N(CC(C)(C)C[N]32)CC(C)(C)C1)[N+]1=C2N(CC(C)(C)C[N]24)CC(C)(C)C1` [compound 1, W2(TMhpp)4Cl2], in data set [1], the “E1/2(1), W2^6+/5+ process” value was −0.99 V and the “E1/2(2), W2^5+/4+ process” value was −1.84 V.
As to `C1CN=C2[N-]CCCN2C1.C1CN=C2[N-]CCCN2C1.C1CN=C2[N-]CCCN2C1.C1CN=C2[N-]CCCN2C1.FC(F)(F)c1cc([B-](c2cc(C(F)(F)F)cc(C(F)(F)F)c2)(c2cc(C(F)(F)F)cc(C(F)(F)F)c2)c2cc(C(F)(F)F)cc(C(F)(F)F)c2)cc(C(F)(F)F)c1.FC(F)(F)c1cc([B-](c2cc(C(F)(F)F)cc(C(F)(F)F)c2)(c2cc(C(F)(F)F)cc(C(F)(F)F)c2)c2cc(C(F)(F)F)cc(C(F)(F)F)c2)cc(C(F)(F)F)c1.[W+3]#[W+3]` [W2(hpp)4^2+ (TFPB^−)2], the “reported E1/2 / observed peak position for W2^5+/4+” value in data set [7] is −1.81 V.
On to W2(TEhpp)4 [compound 4], for which, in data set [6], the “solubility properties compared to decamethylcobaltocene” value is given as “compare very favorably”. Further, the solubility entry in [6] (setting [10]) was “very soluble”; in data set [6] (hexanes), “significantly more soluble”; in data set [6] (setting [11]), “very soluble”. The “decomposition during PES measurement” value is given as “In neither case was there any evidence of decomposition” in data set [9] (317-340° C., about 1 h) and “without evidence of decomposition” in data set [9] (317-340° C., about 1 h, listed as W2(TEhpp)4). In [8], the “onset ionization energy (IEonset, PESonset)” value was determined as 3.40±0.05 eV. Moreover, the “vertical ionization energy (VIE, PESvertical)” value in data set [8] turned out to be 3.71±0.03 eV.
